Results reported in patent publication US8501794B2, “Compounds as cannabinoid receptor ligands” (priority 2007, dated 2013).

Key:
rat CB2 [1] = target: T1, rat CB2 (Rattus norvegicus, UniProt Q9QZN9); experiment: rat CB2 radioligand binding assay ([3H]CP-55,940 competition); parameters: expressed in transfected cells; host or cells: HEK293
T1 sequence (Q9QZN9 1-360): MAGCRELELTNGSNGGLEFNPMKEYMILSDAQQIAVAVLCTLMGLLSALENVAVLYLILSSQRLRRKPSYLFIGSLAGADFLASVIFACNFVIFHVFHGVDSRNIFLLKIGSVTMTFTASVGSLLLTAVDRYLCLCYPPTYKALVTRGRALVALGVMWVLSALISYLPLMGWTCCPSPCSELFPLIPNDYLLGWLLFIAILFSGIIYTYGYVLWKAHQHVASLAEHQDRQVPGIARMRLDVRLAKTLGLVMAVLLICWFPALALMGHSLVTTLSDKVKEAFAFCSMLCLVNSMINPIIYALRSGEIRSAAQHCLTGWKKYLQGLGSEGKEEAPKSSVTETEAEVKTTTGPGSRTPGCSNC

human CB2 receptors = target: T2, human CB2 receptors (Homo sapiens, UniProt P34972); experiment: human CB2 radioligand binding assay ([3H]CP-55,940 competition)
T2 construct: expressed in transfected cells; host or cells: HEK293

rat CB2 [2] = target: T1, rat CB2; experiment: rat CB2 cyclase functional assay (HitHunter cAMP, HEK cells); assay type: cell-based; parameters: expressed in transfected cells; host or cells: HEK; details: forskolin 18 μM

T2 sequence (P34972 whole entry): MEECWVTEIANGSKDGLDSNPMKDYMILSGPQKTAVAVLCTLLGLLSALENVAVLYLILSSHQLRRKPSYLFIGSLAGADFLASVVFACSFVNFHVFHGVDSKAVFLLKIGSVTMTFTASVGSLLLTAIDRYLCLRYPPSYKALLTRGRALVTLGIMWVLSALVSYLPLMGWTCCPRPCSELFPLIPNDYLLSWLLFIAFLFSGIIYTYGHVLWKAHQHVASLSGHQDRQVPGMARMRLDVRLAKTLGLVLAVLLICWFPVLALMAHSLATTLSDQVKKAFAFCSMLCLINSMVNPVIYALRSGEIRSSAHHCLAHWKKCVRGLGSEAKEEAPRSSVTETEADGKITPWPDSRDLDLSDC

SMILES	Ki (rat CB2 [1]) [nM]	Ki (human CB2 receptors) [nM]	EC50 (rat CB2 [2]) [nM]
COc1ccc(Cl)cc1C(=O)/N=c1\sn(C(C)(C)C)cc1C1CCOCC1 [Example 39, N-[(5Z)-2-tert-butyl-4-tetrahydro-2H-pyran-4-ylisothiazol-5(2H)-ylidene]-5-chloro-2-methoxybenzamide]	26	99	1.6
COc1ccc(Cl)cc1C(=O)/N=c1\sn(C(C)(C)C)cc1C(O)C1CCC1 (stereo not drawn) [Example 34, N-[(5Z)-2-tert-butyl-4-[cyclobutyl(hydroxy)methyl]isothiazol-5(2H)-ylidene]-5-chloro-2-methoxybenzamide]	1.2	3.6	0.4
COc1ccc(Cl)cc1C(=O)/N=c1\sn(C(C)(C)C)cc1CCCC#N [Example 30, N-[(5Z)-2-tert-butyl-4-(3-cyanopropyl)isothiazol-5(2H)-ylidene]-5-chloro-2-methoxybenzamide]	2.6	17	0.2
CCCCc1cn(C(C)(C)C)s/c1=N\C(=O)[C@]1(C)CC[C@H](C(=O)OC)C1(C)C [Example 177, Methyl (1S,3R)-3-({[(5Z)-4-butyl-2-tert-butylisothiazol-5(2H)-ylidene]amino}carbonyl)-2,2,3-trimethylcyclopentanecarboxylate]	0.1	0.16	0.15
COc1ccc(C#N)cc1C(=O)/N=c1\sn(C(C)(C)C)cc1CC(C)C [Example 145, N-[(5Z)-2-tert-butyl-4-isobutylisothiazol-5(2H)-ylidene]-5-cyano-2-methoxybenzamide]	6.1	58	0.078
CCCCc1cn(C(C)(C)C)s/c1=N\C(=O)C1C(C)(C)C1(C)C [Example 121, N-[(5Z)-4-butyl-2-tert-butylisothiazol-5(2H)-ylidene]-2,2,3,3-tetramethylcyclopropanecarboxamide]	0.52	0.8	0.33
CCCCc1cn(C(C)(C)C)s/c1=N\C(=O)c1cc(C(F)(F)F)ccc1OC[C@@H]1CCCN1C [Example 192, N-[(5Z)-4-butyl-2-tert-butylisothiazol-5(2H)-ylidene]-2-{[(2S)-1-methylpyrrolidin-2-yl]methoxy}-5-(trifluoromethyl)benzamide]	18	46	3.4
COc1ccc(Cl)cc1C(=O)/N=c1\sn(C(C)(C)C)cc1CC1CCCC1 [Example 136, N-[(5Z)-2-tert-butyl-4-(cyclopentylmethyl)isothiazol-5(2H)-ylidene]-5-chloro-2-methoxybenzamide]	0.51	1.9	0.051
CCCCc1cn(C(C)(C)C)s/c1=N\C(=O)c1cc(C(=O)OC)ccc1OC [Example 74, Methyl 3-({[(5Z)-4-butyl-2-tert-butylisothiazol-5(2H)-ylidene]amino}carbonyl)-4-methoxybenzoate]	2.5	27	0.095
COc1ccc(C(F)(F)F)cc1C(=O)/N=c1\sn(C(C)(C)C)cc1CCCC(C)=O [Example 76, N-[(5Z)-2-tert-butyl-4-(4-oxopentyl)isothiazol-5(2H)-ylidene]-2-methoxy-5-(trifluoromethyl)benzamide]	2.2	24	0.13
COc1ccc(Cl)cc1C(=O)/N=c1\sn(C(C)(C)C)cc1C(O)C(C)C (stereo not drawn) [Example 23, N-[(5Z)-2-tert-butyl-4-(1-hydroxy-2-methylpropyl)isothiazol-5(2H)-ylidene]-5-chloro-2-methoxybenzamide]	2.7	14	0.89
COc1ccc(Cl)cc1C(=O)/N=c1\sn(C(C)(C)C)cc1COCC(F)F [Example 91, N-[(5Z)-2-tert-butyl-4-[(2,2-difluoroethoxy)methyl]isothiazol-5(2H)-ylidene]-5-chloro-2-methoxybenzamide]	12	45	0.1
COc1ccc(Cl)cc1C(=O)/N=c1\sn(C(C)(C)C)cc1CC1OCCO1 [Example 22, N-[(5Z)-2-tert-butyl-4-(1,3-dioxolan-2-ylmethyl)isothiazol-5(2H)-ylidene]-5-chloro-2-methoxybenzamide]	6.2	67	0.24
CCCCc1cn(C(C)(C)C)s/c1=N\C(=O)c1cc(C=NO)ccc1OC [Example 59, N-[(5Z)-4-butyl-2-tert-butylisothiazol-5(2H)-ylidene]-5-[(hydroxyimino)methyl]-2-methoxybenzamide]	3.3	54	0.12
CC(C)(C)n1cc(CCCC#N)/c(=N/C(=O)c2cc(Cl)ccc2OCC(F)(F)F)s1 [Example 133, N-[(5Z)-2-tert-butyl-4-(3-cyanopropyl)isothiazol-5(2H)-ylidene]-5-chloro-2-(2,2,2-trifluoroethoxy)benzamide]	1.1	15	1.4
COc1ccc(Cl)cc1C(=O)/N=c1\sn(C(C)(C)C)cc1CCN=[N+]=[N-] [Example 14, N-[(5Z)-4-(2-azidoethyl)-2-tert-butylisothiazol-5(2H)-ylidene]-5-chloro-2-methoxybenzamide]	2.4	26	0.71
COc1ccc(Cl)cc1C(=O)/N=c1\sn(C(C)(C)C)cc1CCCCF [Example 148, N-[(5Z)-2-tert-butyl-4-(4-fluorobutyl)isothiazol-5(2H)-ylidene]-5-chloro-2-methoxybenzamide]	0.24	7.6	0.11
COc1ccc(Cl)cc1C(=O)/N=c1\sn(C(C)(C)C)cc1CC1CC(C)=NO1 (stereo not drawn) [Example 7]	8.8	370	2.7
COc1ccc(Cl)cc1C(=O)/N=c1\sn(C(C)(C)C)cc1CCC(C)(C)F [Example 87, N-[(5Z)-2-tert-butyl-4-(3-fluoro-3-methylbutyl)isothiazol-5(2H)-ylidene]-5-chloro-2-methoxybenzamide]	0.74	12	0.15
CCCCc1cn(C(C)(C)C)s/c1=N\C(=O)C1(C)CCC(C(=O)NC)C1(C)C (stereo not drawn) [Example 100, N^1-[(5Z)-4-butyl-2-tert-butylisothiazol-5(2H)-ylidene]-N^3,1,2,2-tetramethylcyclopentane-1,3-dicarboxamide]	9.9	10	0.99
CCCCc1cn(C(C)(C)C)s/c1=N\C(=O)C1(C)CCC(C(=O)O)C1(C)C (stereo not drawn) [Example 96, 3-({[(5Z)-4-butyl-2-tert-butylisothiazol-5(2H)-ylidene]amino}carbonyl)-2,2,3-trimethylcyclopentanecarboxylic acid]	27	20	1.4
CCCCc1cn(C(C)(C)C)s/c1=N\C(=O)C1(c2ccccc2)CCCCC1 [Example 94, N-[(5Z)-4-butyl-2-tert-butylisothiazol-5(2H)-ylidene]-1-phenylcyclohexanecarboxamide]	1.1	4.8	0.25
CCCCc1cn(C(C)(C)C)s/c1=N\C(=O)[C@@]1(C)CC[C@@H](C(=O)NCC(F)(F)F)C1(C)C [Example 240, (1S,3R)—N^1-[(5Z)-4-butyl-2-tert-butylisothiazol-5(2H)-ylidene]-1,2,2-trimethyl-N^3-(2,2,2-trifluoroethyl)cyclopentane-1,3-dicarboxamide]	156	100	2.5
